In patent US20060004197A1, “Sulfonamide-based compounds as protein tyrosine kinase inhibitors” (priority 2004, published 2006):
Like-named read-outs stand apart in the source and are kept apart here.

Key:
Format in all cases: biochemical
Recombinant Csk = Recombinant Csk (Homo sapiens, UniProt P41240); test: Csk tyrosine kinase activity, poly E4Y / 32P-ATP phosphorylation assay
FGF receptor (FGFr) = test: FGFr tyrosine kinase activity, poly E4Y / 32P-ATP phosphorylation assay; conditions: Table 2, Formula I compounds; NI = no inhibition at 100 μg/mL
Recombinant human Src = molecular target: T1, Recombinant human Src (Homo sapiens, UniProt P12931); test: Src tyrosine kinase activity, poly E4Y / 32P-ATP phosphorylation assay; conditions: for inhibition at 15 µg/mL: compound at 15 μg/mL
T1 construct: made in house; host or cells: baculovirus-insect cell system

[1] = Table 2, Formula I compounds, NI = no inhibition at 100 μg/mL
[2] = Table 3, Formula II compounds, NI = no inhibition at 100 μg/mL
[3] = poly E4Y / 32P-ATP, Formula IV compounds
[4] = read-out: % Inhibition at 15 μg/mL Src %
[5] = Table 6, Formula V compounds, read-out: % Inhibition at 15 μg/mL Src (%)

Recombinant Csk, sequence (P41240 whole entry, species assumed): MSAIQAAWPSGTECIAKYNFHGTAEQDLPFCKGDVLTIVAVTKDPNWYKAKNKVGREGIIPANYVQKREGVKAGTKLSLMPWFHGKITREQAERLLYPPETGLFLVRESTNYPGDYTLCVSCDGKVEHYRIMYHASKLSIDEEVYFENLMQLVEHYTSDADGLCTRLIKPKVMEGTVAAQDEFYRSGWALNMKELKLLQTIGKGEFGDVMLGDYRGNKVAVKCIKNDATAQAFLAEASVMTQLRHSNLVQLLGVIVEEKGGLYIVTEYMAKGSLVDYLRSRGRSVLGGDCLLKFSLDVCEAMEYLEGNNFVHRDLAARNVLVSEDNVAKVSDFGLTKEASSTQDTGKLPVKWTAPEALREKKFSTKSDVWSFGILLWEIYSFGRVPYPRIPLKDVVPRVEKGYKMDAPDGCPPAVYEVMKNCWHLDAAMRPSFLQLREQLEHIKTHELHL
T1 sequence (P12931 whole entry): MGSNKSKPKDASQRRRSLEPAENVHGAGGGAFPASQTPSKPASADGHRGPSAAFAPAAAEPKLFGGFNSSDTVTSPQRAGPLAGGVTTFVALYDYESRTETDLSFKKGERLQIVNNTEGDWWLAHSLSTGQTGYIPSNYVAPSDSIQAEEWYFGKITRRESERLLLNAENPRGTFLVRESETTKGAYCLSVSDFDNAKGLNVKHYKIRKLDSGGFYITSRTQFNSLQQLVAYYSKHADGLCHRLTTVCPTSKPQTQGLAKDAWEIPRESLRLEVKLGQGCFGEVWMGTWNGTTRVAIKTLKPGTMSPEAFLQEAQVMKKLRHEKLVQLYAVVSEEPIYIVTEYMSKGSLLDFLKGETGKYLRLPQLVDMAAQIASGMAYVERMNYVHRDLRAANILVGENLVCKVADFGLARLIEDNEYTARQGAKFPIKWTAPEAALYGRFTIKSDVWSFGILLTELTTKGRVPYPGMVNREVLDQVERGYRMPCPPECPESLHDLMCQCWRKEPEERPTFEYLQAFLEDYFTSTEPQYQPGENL

Row | Structure (SMILES) | IC50 (Recombinant Csk; [1]) | IC50 (FGF receptor (FGFr)) | IC50 (Recombinant human Src; [1]) | further results
1 | COc1ccc(Sc2cc(NS(=O)(=O)c3ccc(C)cc3)c(NS(=O)(=O)c3ccc(C)cc3)cc2[N+](=O)[O-])cc1 [Compound 4a, N-[4-(4-methoxy-phenylsulfanyl)-5-nitro-2-(4-toluenesulfonylamino)-phenyl]-4-toluenesulfonamide] | 10.8 µM | 5.8 µM | 3.4 µM | –
2 | COc1ccccc1Sc1cc(NS(=O)(=O)c2ccc(C)cc2)c(NS(=O)(=O)c2ccc(C)cc2)cc1[N+](=O)[O-] [Compound 4b, N-[4-(2-methoxy-phenylsulfanyl)-5-nitro-2-(4-toluenesulfonylamino)-phenyl]-4-toluenesulfonamide] | 15 µM | 20 µM | 7 µM | –
3 | COc1cccc(Sc2cc(NS(=O)(=O)c3ccc(C)cc3)c(NS(=O)(=O)c3ccc(C)cc3)cc2[N+](=O)[O-])c1 [Compound 4c, N-[4-(3-methoxy-phenylsulfanyl)-5-nitro-2-(4-toluenesulfonylamino)-phenyl]-4-toluenesulfonamide] | 8.3 µM | 7.5 µM | 3.5 µM | –
4 | Cc1ccc(S(=O)(=O)Nc2cc(Sc3ccc(O)cc3)c([N+](=O)[O-])cc2NS(=O)(=O)c2ccc(C)cc2)cc1 [Compound 4d, N-[4-(4-hydroxy-phenylsulfanyl)-5-nitro-2-(4-toluenesulfonylamino)-phenyl]-4-toluenesulfonamide] | 23.9 µM | 23.9 µM | 5.5 µM | –
5 | Cc1ccc(S(=O)(=O)Nc2cc(Sc3ccc(Cl)cc3)c([N+](=O)[O-])cc2NS(=O)(=O)c2ccc(C)cc2)cc1 [Compound 4e, N-[4-(4-chloro-phenylsulfanyl)-5-nitro-2-(4-toluenesulfonylamino)-phenyl]-4-toluenesulfonamide] | 23 µM | 1.7 µM | 8 µM | –
6 | Cc1ccc(S(=O)(=O)Nc2cc(Sc3ccccc3Cl)c([N+](=O)[O-])cc2NS(=O)(=O)c2ccc(C)cc2)cc1 [Compound 4f, N-[4-(2-chloro-phenylsulfanyl)-5-nitro-2-(4-toluenesulfonylamino)-phenyl]-4-toluenesulfonamide] | 10.8 µM | 10.8 µM | 2.5 µM | –
7 | Cc1ccc(S(=O)(=O)Nc2cc(Sc3cccc(Cl)c3)c([N+](=O)[O-])cc2NS(=O)(=O)c2ccc(C)cc2)cc1 [Compound 4g, N-[4-(3-chloro-phenylsulfanyl)-5-nitro-2-(4-toluenesulfonylamino)-phenyl]-4-toluenesulfonamide] | 9.1 µM | 5.8 µM | 1.6 µM | –
8 | Cc1ccc(S(=O)(=O)Nc2cc(Sc3ccc(F)cc3)c([N+](=O)[O-])cc2NS(=O)(=O)c2ccc(C)cc2)cc1 [Compound 4h, N-[4-(4-fluoro-phenylsulfanyl)-5-nitro-2-(4-toluenesulfonylamino)-phenyl]-4-toluenesulfonamide] | 8.6 µM | 7.8 µM | 1.8 µM | –
9 | Cc1ccc(Sc2cc(NS(=O)(=O)c3ccc(C)cc3)c(NS(=O)(=O)c3ccc(C)cc3)cc2[N+](=O)[O-])cc1 [Compound 4i, N-[5-nitro-2-(4-toluenesulfonylamino)-4-(p-tolylsulfanyl)-phenyl]-4-toluenesulfonamide] | 10.3 µM | 5.1 µM | 1.7 µM | –
10 | Cc1ccc(S(=O)(=O)Nc2cc(Sc3ccccc3C)c([N+](=O)[O-])cc2NS(=O)(=O)c2ccc(C)cc2)cc1 [Compound 4j, N-[5-nitro-2-(4-toluenesulfonylamino)-4-(o-tolylsulfanyl)-phenyl]-4-toluenesulfonamide] | 12 µM | 8.6 µM | 1.7 µM | –
11 | Cc1ccc(S(=O)(=O)Nc2cc(Sc3cccc(C)c3)c([N+](=O)[O-])cc2NS(=O)(=O)c2ccc(C)cc2)cc1 [Compound 4k, N-[5-nitro-2-(4-toluenesulfonylamino)-4-(m-tolylsulfanyl)-phenyl]-4-toluenesulfonamide] | 9.4 µM | 3.1 µM | 1.9 µM | –
12 | Cc1ccc(S(=O)(=O)Nc2cc(Sc3c(C)cccc3C)c([N+](=O)[O-])cc2NS(=O)(=O)c2ccc(C)cc2)cc1 [Compound 4m, N-[4-(2,6-dimethyl-phenylsulfanyl)-5-nitro-2-(4-toluenesulfonylamino)-phenyl]-4-toluenesulfonamide] | 5.4 µM | 4.7 µM | 1 µM | –
13 | Cc1ccc(S(=O)(=O)Nc2cc(Sc3ccccc3C(C)C)c([N+](=O)[O-])cc2NS(=O)(=O)c2ccc(C)cc2)cc1 [Compound 4n, N-[4-(2-isopropyl-phenylsulfanyl)-5-nitro-2-(4-toluenesulfonylamino)-phenyl]-4-toluenesulfonamide] | 5.7 µM | 4.3 µM | 1.3 µM | –
14 | Cc1ccc(S(=O)(=O)Nc2cc(Sc3ccccc3)c([N+](=O)[O-])cc2NS(=O)(=O)c2ccc(C)cc2)cc1 [Compound 4o, N-[5-nitro-4-phenylsulfanyl-2-(4-toluenesulfonylamino)-phenyl]-4-toluenesulfonamide] | 5.7 µM | 1.8 µM | 1.3 µM | –
15 | Cc1ccc(S(=O)(=O)Nc2cc(SCc3ccco3)c([N+](=O)[O-])cc2NS(=O)(=O)c2ccc(C)cc2)cc1 [Compound 4p, N-[4-(furan-2-ylmethylsulfanyl)-5-nitro-2-(4-toluenesulfonylamino)-phenyl]-4-toluenesulfonamide] | 11.3 µM | 7.3 µM | 1.6 µM | –
16 | Cc1ccc(S(=O)(=O)Nc2cc(SCc3ccccc3)c([N+](=O)[O-])cc2NS(=O)(=O)c2ccc(C)cc2)cc1 [Compound 4t, N-[4-benzylsulfanyl-5-nitro-2-(4-toluenesulfonylamino)-phenyl]-4-toluenesulfonamide] | 5.5 µM | – | 1.2 µM | –

Row | Structure (SMILES) | IC50 (Recombinant Csk; [1]) | IC50 (FGF receptor (FGFr)) | IC50 (Recombinant human Src; [1]) | further results
17 | Cc1ccc(S(=O)(=O)Nc2ccc(Cl)cc2NS(=O)(=O)c2ccc(C)cc2)cc1 [Compound 6, N-[4-chloro-2-(4-toluenesulfonylamino)-phenyl]-4-toluenesulfonamide] | – | – | – | IC50 (Recombinant Csk; [2]): > 222 µM; IC50 (Recombinant human Src; [2]): > 222 µM
18 | COc1ccc(Oc2ccc(NS(=O)(=O)c3ccc([N+](=O)[O-])cc3)c(NS(=O)(=O)c3ccc([N+](=O)[O-])cc3)c2)cc1 [Compound 12r, N-[4-(4-methoxy-phenoxy)-2-(4-nitrobenzenesulfonylamino)-phenyl]-4-nitrobenzenesulfonamide] | – | – | – | IC50 (Recombinant Csk; [2]): > 167 µM; IC50 (Recombinant human Src; [2]): 6.6 µM
19 | Cc1ccc(S(=O)(=O)Nc2ccc(-n3cnc4ccccc43)cc2NS(=O)(=O)c2ccc(C)cc2)cc1 [Compound 17b, N-[4-(benzimidazol-1-yl)-2-(4-toluenesulfonylamino)-phenyl]-4-toluenesulfonamide] | – | – | – | IC50 (Recombinant Csk; [2]): 83 µM; IC50 (Recombinant human Src; [2]): 21 µM
20 | COc1ccc(Oc2ccc(NS(=O)(=O)c3ccc(C)cc3)c(OP(=O)(O)O)c2)cc1 [Compound 43, [5-(4-methoxy-phenoxy)-2-(4-toluenesulfonylamino)-phenyl]-phosphate] | – | – | – | IC50 (Recombinant Csk; [3]): > 215 µM; IC50 (Recombinant human Src; [3]): 13 µM
21 | COC(=O)c1cc(Oc2ccc(OC)cc2)ccc1NS(=O)(=O)c1ccc(C)cc1 [Compound 67, methyl 5-(4-methoxy-phenoxy)-2-(4-toluenesulfonylamino)-benzoate] | – | – | – | IC50 (Recombinant Csk; [3]): > 234 µM; IC50 (Recombinant human Src; [3]): > 234 µM
22 | COc1ccc(OCc2ccc(CN)c(NS(=O)(=O)c3ccc(C)cc3)c2)cc1 [Compound 71w, N-[2-aminomethyl-5-(4-methoxy-phenoxymethyl)-phenyl]-4-toluenesulfonamide] | – | – | – | inhibition at 15 µg/mL (Recombinant human Src; [4]): 9%
23 | COc1ccc(OCc2ccc(CNS(C)(=O)=O)c(NS(=O)(=O)c3ccc4cc(C)ccc4c3)c2)cc1 [Compound 71x, N-[2-(methanesulfonylamino-methyl)-5-(4-methoxy-phenoxymethyl)-phenyl]-6-methyl-naphthalene-2-sulfonamide] | – | – | – | inhibition at 15 µg/mL (Recombinant human Src; [4]): 20%
24 | Cc1ccc(C(=O)Nc2cc(N3CCOCC3)c([N+](=O)[O-])cc2NC(=O)c2ccc(C)cc2)cc1 [Compound 71y, N-(4-morpholin-4-yl-5-nitro-2-(4-toluoylamino)-phenyl)-4-toluamide] | – | – | – | inhibition at 15 µg/mL (Recombinant human Src; [4]): 14%
25 | CCCC(=O)Nc1cc(Oc2ccc(OC)cc2)ccc1NS(=O)(=O)c1ccc(C)cc1 [Compound 71z, N-[5-(4-methoxy-phenoxy)-2-(4-toluenesulfonylamino)-phenyl]-butyramide] | – | – | – | inhibition at 15 µg/mL (Recombinant human Src; [4]): 5%
26 | COc1ccc(Oc2ccc3[nH]c(=O)n(S(=O)(=O)c4ccc(C)cc4)c3c2)cc1 [Compound 72a, 6-(4-methoxy-phenoxy)-1-(4-toluenesulfonyl)-1,3-dihydro-benzoimidazol-2-one] | – | – | – | inhibition at 15 µg/mL (Recombinant human Src; [5]): 21%
27 | COc1ccc(Oc2ccc3c(c2)[nH]c(=O)n3S(=O)(=O)c2ccc(C)cc2)cc1 [Compound 72b, 5-(4-methoxy-phenoxy)-1-(4-toluenesulfonyl)-1,3-dihydro-benzoimidazol-2-one] | – | – | – | inhibition at 15 µg/mL (Recombinant human Src; [5]): 19%
28 | COc1ccc(Oc2ccc3c(c2)n(S(=O)(=O)c2ccc(C)cc2)c(=O)n3S(=O)(=O)c2ccc(C)cc2)cc1 [Compound 72c, 5-(4-methoxy-phenoxy)-1,3-bis-(4-toluenesulfonyl)-1,3-dihydro-benzoimidazol-2-one] | – | – | – | inhibition at 15 µg/mL (Recombinant human Src; [5]): 22%
29 | COc1ccc(Oc2ccc3c(c2)NS(=O)(=O)N3)cc1 [Compound 72d, 5-(4-methoxy-phenoxy)-1,3-dihydro-benzo[1,2,5]thiadiazole 2,2-dioxide] | – | – | – | inhibition at 15 µg/mL (Recombinant human Src; [5]): 12%
30 | COc1ccc(Oc2ccc3[nH]c(=O)[nH]c3c2)cc1 [Compound 72e, 5-(4-methoxy-phenoxy)-1,3-dihydro-benzoimidazol-2-one] | – | – | – | inhibition at 15 µg/mL (Recombinant human Src; [5]): 4%
31 | COc1ccc(Oc2ccc3c(c2)NS(=O)(=O)N3S(=O)(=O)c2ccc(C)cc2)cc1 [Compound 72f, 5-(4-methoxy-phenoxy)-1-(4-toluenesulfonyl)-1,3-dihydro-benzo[1,2,5]thiadiazole 2,2-dioxide] | – | – | – | inhibition at 15 µg/mL (Recombinant human Src; [5]): 14%
